# Source: patent publication US9593305B2, “Differentiation of pluripotent stem cells” (Janssen Biotech, Inc., priority 2008, dated 2017)
# System: H1 human embryonic stem cells
# Assay: Secondary screening with EGF/FGF4 in the absence of activin A (Example 4)
# Format: cell-based
# Conditions: 2.5 μM compound + 50 ng/ml EGF + 50 ng/ml FGF4, Wnt3a, no activin A, four days
# Method: Clusters of H1 human embryonic stem cells were grown on reduced growth factor […]™ (Invitrogen; Cat #356231)-coated tissue culture plastic. Cells were passaged using collagenase (Invitrogen; Cat #Cat #17104-019) treatment and gentle scraping, washed to remove residual enzyme, and plated with even dispersal at a ratio of 1:1 (surface area) on reduced growth factor […]™-coated 96-well black plates (Packard ViewPlates; PerkinElmer; Cat #6005182) using volumes of 100 μl/well. Cells were allowed to attach as clusters and then recover log phase growth over a 1 to 3 day period, feeding daily with MEF conditioned medium supplemented with 8 ng/ml bFGF (R&D Systems; Cat #233-FB). Plates were maintained at 37° C., 5% CO2 in a humidified box throughout the duration of assay.
# Stock concentrations for EGF (R&D Systems; Cat #236-EG) and FGF4 (R&D Systems; Cat #235-F4) were 250 ng/ml, each solubilized in PBS with 0.1% BSA (Sigma; Cat #A7888). Compounds were available as 5 mM stocks in 96-well plate format, solubilized in 100% DMSO (Sigma; Cat #D2650) and stored at −80° C. The compounds were further diluted to an intermediate concentration of 0.2 mM in 50 mM HEPES (Invitrogen; Cat #15630-080), 20% DMSO and stored at 4° C. All growth factors and inhibitors were prepared in a deep well, 96-well polypropylene plate, diluted to 5× intermediate stocks in DMEM:F12 base medium at the beginning of assay and stored at 4° C.
# A secondary screening assay was conducted, testing in triplicate and feeding on alternate days over the four-day assay timeframe. Assays were initiated by aspirating culture medium from each well followed by three washes in PBS to remove residual growth factors and serum. Test volumes of 80 μl per well were added back containing DMEM:F12 base medium (Invitrogen; Cat #11330-032) supplemented with 0.625% FCS (HyClone; Cat #SH30070.03), 25 ng/ml Wnt3a (R&D Systems), and 3.125 μM compound plus 20 μl 5× stock of growth factors to yield a final concentration of 0.5% FCS, 20 ng/ml Wnt3a, and 2.5 μM compound plus 50 ng/ml EGF and 50 ng/ml FGF4 in the assay. Positive control wells (100 μl/well) contained the same base medium supplemented with 0.5% FCS, 20 ng/ml Wnt3a and 100 ng/ml activin A. Negative control wells (100 μl/well) contained the same base medium with 0.5% FCS and 20 ng/ml Wnt3a, omitting activin A.
# On day 3, wells were aspirated and fed with 80 μl DMEM:F12 base medium supplemented with 2.5% FCS (HyClone) and 3.125 μM compound plus […] 5× stock of growth factors per well to yield a final concentration of 2% FCS and 2.5 μM compound (omitting Wnt3a) plus 50 ng/ml EGF and FGF4 in the assay. Positive control wells (100 μl/well) contained the same base medium supplemented with 2% FCS and 100 ng/ml activin A, omitting Wnt3a. Negative control wells (100 μl/well) contained the same base medium with 2% FCS, omitting both activin A and Wnt3a.
# At the conclusion of four-days of culture, assay plates were washed twice with PBS, fixed with 4% paraformaldehyde (Alexis Biochemical; Cat #ALX-350-011) at room temperature for 20 minutes, then washed three times with PBS and permeabilized with 0.5% Triton X-100 (Sigma; Cat #T8760-2) for 20 minutes at room temperature. Cells were washed again three times with PBS and blocked with 4% chicken serum (Invitrogen; Cat 16110082) in PBS for 30 minutes at room temperature. Primary antibody (goat anti-human SOX17; R&D Systems; cat #AF1924) was diluted 1:100 in 4% chicken serum and added to each well for one hour at room temperature. Alexa Fluor 488 conjugated secondary antibody (chicken anti-goat IgG; Molecular Probes; Cat #AZ1467) was diluted 1:200 in PBS and added to each sample well after washing three times with PBS. To counterstain nuclei, 4 μg/ml Hoechst 33342 (Invitrogen; Cat #H3570) was added for ten minutes at room temperature. Plates were washed once with PBS and left in 100 μl/well PBS for imaging. […]
SMILES,Cell Number: % of positive control,Cell Number: Average Total Cell Number,Sox17 Expression: % of positive control,Sox17 Expression: Average Total Intensity
"O=C1CCN2CCN(CC2)Cc2cc(Cl)cc(c2)Nc2ncnc(n2)-c2cncc(c2)CCCN1 [Compound 34, 5-Chloro-1,8,10,12,16,22,26,32-octaazapentacyclo[24.2.2.1˜3.7˜0.1˜9,13˜0.1˜14.18˜]tritriaconta-3(33), 4,6,9(32), 10,12,14(31), 15,17-nonaen-23-one]",100.87 % of positive control,18891,17.55 % of positive control,3.26E+07
"CCN1CCCc2cccc(c2)-c2ncnc(n2)Nc2cccc(c2)CCNC(=O)C1 [Compound 29, 18-Ethyl-3,5,7,15,18,28-hexaazatetracyclo[20.3.1.1˜2,6˜0.1˜8,12˜]octacosa-1(26), 2(28), 3,5,8(27), 9,11,22,24-nonaen-16-one]",107.97 % of positive control,20221,15.27 % of positive control,2.83E+07
"CN1CCC(=O)NCCCNc2ncccc2-c2ncnc(n2)Nc2cccc(c2)C1 [Compound 39, 9-Methyl-2,3,4,5,7,8,9,10-octahydro-16H-17,21-(azeno)-11,15-(metheno)pyrido[3,2-g][1,3,5,9,13,17]hexaazacyclotricosin-6(1H)-one]",91.28 % of positive control,17095,15.19 % of positive control,2.82E+07
"O=C1NCCCc2cncc(c2)-c2ncnc(n2)Nc2cc(Cl)cc(c2)CN2CCCC1C2 (centres unmarked) [Compound 37, 10-Chloro-3,5,7,14,20,26,31-heptaazapentacyclo[22.3.1.1˜2,6˜0.1˜8,12˜0.1˜14,18˜]hentriaconta-1(28), 2(31), 3,5,8(30), 9,11,24,26-nonaen-19-one]",83.32 % of positive control,15605,14.37 % of positive control,2.67E+07
"O=C1NCCCc2cncc(c2)-c2ncnc(n2)Nc2cccc(c2)CN2CCCC1C2 (centres unmarked) [Compound 17, 3,5,7,14,20,26,31-Heptaazapentacyclo[22.3.1.1-2,6˜1˜8,12˜1˜14,18˜]hentriaconta-1(28), 2(31), 3,5,8(30), 9,11,24,26-nonaen-19-one]",114.51 % of positive control,21445,18.48 % of positive control,3.43E+07
"O=C1NCCCc2cncc(c2)-c2ncnc(n2)Nc2cccc(c2)CN2CCC1CC2 [Compound 22, 1,8,10,12,16,22,30-Heptaazapentacyclo[22.2.2.1-3,7˜0.1˜9,13˜1-14,18˜]hentriaconta-3(31), 4,6,9(30), 10,12,14(29), 15,17-nonaen-23-one]",97.91 % of positive control,18336,20.05 % of positive control,3.72E+07

# Same assay, conditions: Table 3B most potent compounds, with EGF + FGF4, no activin A
SMILES,"Cell Number, % of positive control",Sox17 Intensity % of positive control
"CCN1CC(=O)NCCCc2cncc(c2)-c2ncnc(n2)Nc2cc(Cl)cc(c2)C1 [Compound 35, 10-Chloro-14-ethyl-3,5,7,14,17,23,27-heptaazatetracyclo[19.3.1.1˜2,6˜0.1˜8,12]Theptacosa-1(25), 2(27), 3,5,8(26), 9,11,21,23-nonaen-16-one]",127.20 % of positive control,13.69 % of positive control
